Results as given in US7238813B2, “Chemical compounds” (Smithkline Beecham Corporation, priority 2000, dated 2007).
Counter-ions that a name gives are not always drawn.

Experiments:
GST-VEGFR2 = biological target: T1, GST-VEGFR2 (Homo sapiens, UniProt P35968); experiment: VEGF-R2 enzyme assay (VEGF-E), LANCE method; assay type: biochemical; details: 75 μM ATP
T1 construct: GST-VEGFR2, baculovirus expressed recombinant constructs of the intracellular domains of human TIE2 tagged by GST; made in house
T1 sequence (P35968 786-1356 limits assumed): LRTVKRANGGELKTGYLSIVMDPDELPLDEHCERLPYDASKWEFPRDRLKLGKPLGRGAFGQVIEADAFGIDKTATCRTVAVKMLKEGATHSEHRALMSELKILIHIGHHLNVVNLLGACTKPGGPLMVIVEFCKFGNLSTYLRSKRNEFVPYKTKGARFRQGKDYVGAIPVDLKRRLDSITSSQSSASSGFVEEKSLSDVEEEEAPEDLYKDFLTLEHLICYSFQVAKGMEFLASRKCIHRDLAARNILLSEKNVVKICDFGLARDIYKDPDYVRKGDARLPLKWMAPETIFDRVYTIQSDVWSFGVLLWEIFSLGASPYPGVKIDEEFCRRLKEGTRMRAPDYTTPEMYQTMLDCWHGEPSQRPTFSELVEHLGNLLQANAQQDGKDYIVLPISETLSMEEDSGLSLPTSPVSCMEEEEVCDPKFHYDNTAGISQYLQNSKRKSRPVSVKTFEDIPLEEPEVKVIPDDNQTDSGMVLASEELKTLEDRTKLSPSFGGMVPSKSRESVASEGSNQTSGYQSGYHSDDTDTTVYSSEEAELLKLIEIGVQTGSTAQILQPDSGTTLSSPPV

[1] = biological target: T2, GST-TIE2 (intracellular domains of human TIE2) (Homo sapiens, UniProt Q02763); experiment: TIE-2 enzyme assay (TIE2-E), LANCE method; assay type: biochemical; details: 80 uM ATP
T2 construct: made in house
T2 sequence (Q02763 762-1104): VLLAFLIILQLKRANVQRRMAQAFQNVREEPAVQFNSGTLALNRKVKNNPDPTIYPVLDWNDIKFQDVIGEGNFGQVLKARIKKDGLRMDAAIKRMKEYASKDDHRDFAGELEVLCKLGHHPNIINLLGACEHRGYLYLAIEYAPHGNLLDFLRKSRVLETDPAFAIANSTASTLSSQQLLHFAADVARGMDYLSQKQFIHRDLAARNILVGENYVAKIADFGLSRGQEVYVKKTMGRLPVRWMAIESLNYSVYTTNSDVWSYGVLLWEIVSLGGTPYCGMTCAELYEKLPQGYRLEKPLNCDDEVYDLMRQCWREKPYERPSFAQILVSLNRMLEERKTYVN
Summary of the method: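 Baculovirus GST-TIE2 (human intracellular domain, aa 762–1104) preactivated 30 min at RT with 2 mM ATP, then reacted 30 min at RT with 1 μM D1-15 peptide, 80 uM ATP, 10 mM MgCl2, pH 7.4, 2.4% DMSO. EDTA-stopped; LANCE Eu-anti-pTyr/streptavidin-APC read-out. IC50 by nonlinear regression, reported as pIC50.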

[2] = biological target: T3, TIE2 intracellular domain/c-fms extracellular domain (TIE2/c-fms) chimeric protein expressing mouse 3T3 cells (Homo sapiens, UniProt Q02763); experiment: TIE-2 autophosphorylation assay (TIE2-C), ELISA; assay type: cell-based; details: TIE2/c-fms 3T3 cells, MCSF activation
T3 construct: a TIE2 intracellular domain/c-fms extracellular domain (TIE2/c-fms) chimeric protein; expressed in transfected cells; host or cells: mouse 3T3 cells
T3 sequence (Q02763 770-1124 limits assumed, change not shown): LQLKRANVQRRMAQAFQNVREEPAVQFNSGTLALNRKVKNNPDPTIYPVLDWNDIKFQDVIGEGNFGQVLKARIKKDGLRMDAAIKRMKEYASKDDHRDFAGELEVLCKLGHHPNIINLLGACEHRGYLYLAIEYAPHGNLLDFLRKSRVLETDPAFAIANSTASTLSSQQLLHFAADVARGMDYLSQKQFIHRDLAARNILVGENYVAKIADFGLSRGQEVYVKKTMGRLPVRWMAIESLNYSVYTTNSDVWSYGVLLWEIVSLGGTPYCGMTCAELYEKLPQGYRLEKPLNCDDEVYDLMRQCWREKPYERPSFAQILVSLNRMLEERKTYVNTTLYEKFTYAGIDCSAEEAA
Summary of the method: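 Mouse 3T3 cells expressing TIE2 intracellular/c-fms extracellular chimera treated with compound for 1 hr in serum-free DMEM (0.1% DMSO), then stimulated with MCSF. Lysates captured on anti-c-fms plates overnight at 4 °C; phosphotyrosine detected by biotin-PT66/HRP-streptavidin, OD450. IC50 by nonlinear regression, reported as pIC50.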

[3] = test system: Human umbilical cord endothelial cells (HUVEC); experiment: VEGF-driven cellular proliferation assay: BrdU incorporation assay (VEGF-C); assay type: cell-based; set-up: key to VEGF-C: + = pIC50 of 5.0–6.0; ++ = pIC50 of 6.0–7.0; +++ = pIC50 of > 7.0; − = a negative or inconclusive result; details: for IC50: Homo sapiens
Summary of the method: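 HUVEC (≤6 passages) were plated at 5000 cells/well and exposed to compound 30 min in serum-free M199 containing 0.6% DMSO. Medium with 20 ng/ml VEGF was then added for 24 h, followed by a 24 h pulse with 10 μM BrdU and ELISA read at 450 nm. IC50 from nonlinear regression of percent inhibition was expressed as pIC50.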

Row | Structure (SMILES) | IC50 (GST-VEGFR2) | IC50 [1] | IC50 [2] | VEGF-C [3] | IC50 [3]
1 | COC(=O)Nc1nc2cc(Oc3ccc(NC(=O)Nc4cc([N+](=O)[O-])ccc4C)cc3)ccc2[nH]1 [Example 47, Methyl N-(5-(4-((2-methyl-5-nitrophenyl)aminocarbonylamino)phenoxy)-1H-benzimidazol-2-yl)carbamate] | < 100 nM | < 100 nM | < 100 nM | − | 
2 | COC(=O)Nc1nc2cc(Oc3ccc(NC(=O)Nc4cc(C(F)(F)F)ccc4F)cn3)ccc2[nH]1 [Example 37, Methyl N-(5-(5-((2-fluoro-5-(trifluoromethyl)phenyl)aminocarbonylamino)-2-pyridyloxy)-1H-benzimidazol-2-yl)carbamate] | < 100 nM | < 100 nM | < 100 nM | − | 
3 | O=C(Nc1ccc(Oc2ccc3[nH]c(NC(=O)C4CCCC4)nc3c2)cc1)Nc1cc(C(F)(F)F)ccc1F [Example 26, N-(5-(4-((2-Fluoro-5-(trifluoromethyl)phenyl)aminocarbonylamino)phenoxy)-1H-benzimidazol-2-yl)cyclopentamide] | < 100 nM | < 100 nM | 100 to 1000 nM |  | 100 to 1000 nM
4 | COC(=O)Nc1nc2cc(Oc3ccc(NC(=O)Nc4cc(C(F)(F)F)ccc4Cl)cc3)ccc2[nH]1 [Example 43] | < 100 nM | < 100 nM | < 100 nM |  | 1000 to 10000 nM
5 | COC(=O)Nc1nc2ccc(Oc3ccc(NC(=O)Nc4cc(C(F)(F)F)ccc4F)cc3)cc2o1 [Example 115, Methyl N-(6-(4-((2-fluoro-5-(trifluoromethyl)phenyl)aminocarbonylamino)phenoxy)benzoxazol-2-yl)carbamate] | < 100 nM | < 100 nM | < 100 nM |  | < 100 nM
6 | NCC(=O)Nc1nc2cc(Oc3ccc(NC(=O)Nc4cc(C(F)(F)F)ccc4F)cc3)ccc2[nH]1 [Example 30, N-(5-(4-((2-Fluoro-5-(trifluoromethyl)phenyl)aminocarbonylamino)phenoxy)-1H-benzimidazol-2-yl)-2-aminoacetamide dihydrochloride] | < 100 nM | < 100 nM | < 100 nM |  | 100 to 1000 nM
7 | O=C(Nc1ccc(Oc2ccc3[nH]c(NC(=O)c4c[nH]cn4)nc3c2)cc1)Nc1cc(C(F)(F)F)ccc1F [Example 98, N-(5-(4-((2-Fluoro-5-(trifluoromethyl)phenyl)aminocarbonylamino)phenoxy)-1H-benzimidazol-2-yl)(1H-imidazole-4-carboxamide)dihydrochloride] | < 100 nM | < 100 nM | < 100 nM |  | 100 to 1000 nM
8 | COC(=O)Nc1nc2nc(Oc3ccc(NC(=O)Nc4cc(C(F)(F)F)ccc4F)cc3)ccc2[nH]1 [Example 69, dihydrochloride] | < 100 nM | < 100 nM | < 100 nM |  | 100 to 1000 nM
9 | CC(C)(C)OC(=O)Nc1nc2cc(Oc3ccc(NC(=O)Nc4cc(C(F)(F)F)ccc4F)cc3)ccc2[nH]1 [Example 18, t-Butyl N-(5-(4-((2-fluoro-5-(trifluoromethyl)phenyl)aminocarbonylamino)phenoxy)-1H-benzimidazol-2-yl)carbamate] | < 100 nM | < 100 nM | < 100 nM |  | < 100 nM
10 | CCOC(=O)Nc1nc2cc(Oc3ccc(NC(=O)Nc4cc(C(F)(F)F)ccc4F)cc3)ccc2[nH]1 [Example 17, Ethyl N-(5-(4-((2-fluoro-5-(trifluoromethyl)phenyl)aminocarbonylamino)phenoxy)-1H-benzimidazol-2-yl)carbamate] | < 100 nM | < 100 nM | < 100 nM |  | < 100 nM
11 | Cn1cnc(CC(=O)Nc2nc3cc(Oc4ccc(NC(=O)Nc5cc(C(F)(F)F)ccc5F)cc4)ccc3[nH]2)c1 [Example 97, N-(5-(4-((2-Fluoro-5-(trifluoromethyl)phenyl)aminocarbonylamino)phenoxy)-1H-benzimidazol-2-yl)(1methyl-1H-imidazol-4-yl)acetamide] | < 100 nM | < 100 nM | < 100 nM |  | < 100 nM
12 | COC(=O)Nc1nc2cc(Oc3ccc(NC(=O)Nc4cccc(C(F)(F)F)c4)cc3)ccc2[nH]1 [Example 19, Methyl N-(5-(4-((3-(trifluoromethyl)phenyl)aminocarbonylamino)phenoxy)-1H-benzimidazol-2-yl)carbamate] | < 100 nM | < 100 nM | < 100 nM | − | 
13 | COC(=O)Nc1nc2cc(Oc3ccc(NC(=O)Nc4cc([N+](=O)[O-])ccc4F)cc3)ccc2[nH]1 [Example 46, Methyl N-(5-(4-((2-fluoro-5-nitrophenyl)aminocarbonylamino)phenoxy)-1H-benzimidazol-2-yl)carbamate] | < 100 nM | < 100 nM | < 100 nM | − | 
14 | Cc1ccc(S(=O)(=O)n2c(N)nc3ccc(Oc4ccc(NC(=O)Nc5cc(C(F)(F)F)ccc5F)cc4)cc32)cc1 [Example 24, 6-(4-((2-Fluoro-5-(trifluoromethyl)phenyl)aminocarbonylamino)phenoxy)-1-(4-(methyl)phenylsulfonyl)-1H-benzimidazol-2-ylamine] | < 100 nM | < 100 nM | 100 to 1000 nM | − | 
15 | O=C(Cn1nnc(N2CCCC2)n1)Nc1nc2cc(Oc3ccc(NC(=O)Nc4cc(C(F)(F)F)ccc4F)cc3)ccc2[nH]1 [Example 96, N-(5-(4-((2-Fluoro-5-(trifluoromethyl)phenyl)aminocarbonylamino)phenoxy)-1H-benzimidazol-2-yl)(5-(1-pyrrolidino)tetrazol-2-yl)acetamide] | < 100 nM | < 100 nM | < 100 nM |  | 100 to 1000 nM
16 | COC(=O)Nc1nc2cc([S+]([O-])c3ccc(NC(=O)Nc4cc(C(F)(F)F)ccc4F)cc3)ccc2[nH]1 (centres unmarked) [Example 13, Methyl N-(5-(4-((2-fluoro-5-(trifluoromethyl)phenyl)aminocarbonylamino)phenylsulfinyl)-1H-benzimidazol-2-yl)carbamate] | 100 to 1000 nM | < 100 nM | 100 to 1000 nM | − | 
17 | O=C(Nc1ccc(Oc2ccc3nc(NC(=O)c4cccnc4)[nH]c3c2)cc1)Nc1cc(C(F)(F)F)ccc1F [Example 93, N-(5-(4-((2-Fluoro-5-(trifluoromethyl)phenyl)aminocarbonylamino)phenoxy)-1H-benzimidazol-2-yl)-3-pyridinecarboxamide] | < 100 nM | < 100 nM | < 100 nM |  | 1000 to 10000 nM
18 | O=C(Nc1ccc(Oc2ccc3[nH]c(NC(=O)OCc4ccccc4)nc3c2)cc1)Nc1cc(C(F)(F)F)ccc1F [Example 81, Benzyl N-(5-(4-((2-fluoro-5-(trifluoromethyl)phenyl)aminocarbonylamino)phenoxy)-1H-benzimidazol-2-yl)carbamate] | < 100 nM | < 100 nM | < 100 nM | − | 
19 | O=C1CCn2c(nc3ccc(Oc4ccc(NC(=O)Nc5cc(C(F)(F)F)ccc5F)cc4)nc32)N1 [Example 77] | < 100 nM | < 100 nM | < 100 nM |  | 100 to 1000 nM
20 | CC(C)CCC(=O)Nc1nc2cc(Oc3ccc(NC(=O)Nc4cc(C(F)(F)F)ccc4F)cc3)ccc2[nH]1 [Example 28, N-(5-(4-((2-Fluoro-5-(trifluoromethyl)phenyl)aminocarbonylamino)phenoxy)-1H-benzimidazol-2-yl)-4-methylpentamide] | < 100 nM | < 100 nM | < 100 nM |  | 100 to 1000 nM
21 | O=C(Nc1ccc(Oc2ccc3[nH]c(NC(=O)c4ccc5[nH]cnc5c4)nc3c2)cc1)Nc1cc(C(F)(F)F)ccc1F [Example 89, N-(5-(4-((2-Fluoro-5-(trifluoromethyl)phenyl)aminocarbonylamino)phenoxy)-1H-benzimidazol-2-yl)-5-benzimidazolecarboxamide] | < 100 nM | < 100 nM | < 100 nM |  | 100 to 1000 nM
22 | CN1CCN(Cc2ccc(C(=O)Nc3nc4cc(Oc5ccc(NC(=O)Nc6cc(C(F)(F)F)ccc6F)cc5)ccc4[nH]3)cc2)CC1 [Example 87, N-(5-(4-((2-Fluoro-5-(trifluoromethyl)phenyl)aminocarbonylamino)phenoxy)-1H-benzimidazol-2-yl)-4-(4-methyl-1-piperazinomethyl)benzamide] | < 100 nM | < 100 nM | < 100 nM |  | 100 to 1000 nM
23 | O=C(Nc1ccc(Oc2ccc3[nH]c(NC(=O)c4ccc(-n5ccnc5)cc4)nc3c2)cc1)Nc1cc(C(F)(F)F)ccc1F [Example 91, N-(5-(4-((2-Fluoro-5-(trifluoromethyl)phenyl)aminocarbonylamino)phenoxy)-1H-benzimidazol-2-yl)-4-(1H-imidazol-1-yl)benzamide] | < 100 nM | < 100 nM | < 100 nM | − | 
